Data reported in patent EP1117420B1, “PHARMACEUTICAL COMPOSITIONS BASED ON ALPHA-CYCLODEXTRIN FOR THE ORAL ADMINISTRATION OF LH-RH ANALOGUES” (LABORATOIRE THERAMEX S.A., priority 1998, dated 2000).

Experiments:
[1] = biological target: T1, LH-RH receptors (Rattus norvegicus, UniProt P30969); assay: stimulation of testosterone secretion after oral gavage (plasma testosterone by radioimmunoassay); type: in vivo, Sprague-Dawley rats; set-up: from tissue; host or cells: pituitary of living adult male Sprague-Dawley rats (in vivo); conditions: for stimulation of testosterone secretion: 5 Ng/kg oral, 2 hours, Figure 3; for total plasma testosterone (nmol/l) (m ± sem): 2 nmoles/rat by oral gavage, blood 2 hours after administration, male rats
T1 sequence (P30969 1-327): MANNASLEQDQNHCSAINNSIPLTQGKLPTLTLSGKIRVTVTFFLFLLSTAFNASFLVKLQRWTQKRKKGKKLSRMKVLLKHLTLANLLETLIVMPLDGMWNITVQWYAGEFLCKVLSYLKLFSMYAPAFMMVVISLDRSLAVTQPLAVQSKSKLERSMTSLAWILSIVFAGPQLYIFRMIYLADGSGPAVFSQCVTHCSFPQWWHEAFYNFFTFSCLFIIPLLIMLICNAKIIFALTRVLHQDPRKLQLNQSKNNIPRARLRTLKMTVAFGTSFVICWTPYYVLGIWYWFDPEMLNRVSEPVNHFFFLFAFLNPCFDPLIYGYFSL
Method: For screening purposes, blood samples were drawn 2 hours after oral administration of a common dose of 2 nmoles/rat of LH-RH peptide agonists in an aqueous solution containing 10 or 100 mM of α-CD (Tables 1 and 2; Figures 1, 4 and 6). […] Total plasma testosterone (Diagnostic System Laboratories) and LH (Amersham Pharmacia Biotech) determinations were performed by radioimmunoassay. In screening 2-hour experiments, each group comprised between 6 and 8 rats; each time point of the kinetic study was studied on four animals.
All α-CD derivatives were purchased from Cyclolab (Budapest, Hungary).
(§1) Then, the α-CD solution was added to fill the flask up to 10 ml to make a 2 nmol/ml solution of which 1ml was administered by oral gavage to each rat.
After overnight magnetic stirring at room temperature, each solution was given to rats by oral gavage in a 4 ml/kg volume to administer the same dose of 5 µg/kg of example 2 without or with increasing concentrations of α-CD.

[2] = biological target: T1, LH-RH receptors; assay: stimulation of LH secretion after oral gavage (plasma LH by radioimmunoassay); type: in vivo, Sprague-Dawley rats; set-up: from tissue; host or cells: pituitary of living adult male Sprague-Dawley rats (in vivo); conditions: 2 nmoles/rat by oral gavage, blood 2 hours after administration, male rats
Method: […] […] Total plasma testosterone (Diagnostic System Laboratories) and LH (Amersham Pharmacia Biotech) determinations were performed by radioimmunoassay. In screening 2-hour experiments, each group comprised between 6 and 8 rats; each time point of the kinetic study was studied on four animals.
Two hours after administration, plasma LH levels were measured on eight rats per dose group (Figure 7).
as §1

[3] = biological target: T1, LH-RH receptors; assay: inhibition of ovulation by oral administration (ova in oviduct on day of expected estrus); type: in vivo, Wistar rats; set-up: from tissue; host or cells: pituitary of living adult female Wistar rats (in vivo)
Method: The peptides according to the general formula (I') exert an antagonist activity upon the LH-RH receptors in vivo, resulting in particular in the inhibition of ovulation.
The influence of α-, β- and γ-CD was tested on the activity of antide (an example of LH-RH peptide antagonist) when orally admininisted by gavage to normally cycling adult female Wistar rats between 1:30 and 3:00 p.m. on the day of proestrus, after at least two full regular estrous cycles as monitored by daily vaginal smears. The antiovulatory efficacy was checked the next morning, on the day of expected estrus, by looking for ova in the oviduct of treated females. The presence of at least one ovum attested that some degree of spontaneous ovulation did occur, and only the total absence of ovum was considered as effective LH-RH antagonist-induced inhibition of ovulation. Antide was solubilized in a vehicle consisting of 20% (vol/vol) propylene glycol in water already containing […], to which 10% (wt/vol) of either α-, β- or γ-CD was then added.
Each 5 mg powder vial of antide (from Bachem, Bubendorf, Switzerland) containing 4.2434 mg net peptide was dissolved in a mixture of 2.122 ml propylene glycol with 8.487 ml water containing 0.1% bovine albumin. To each 10.609 ml solution of antide (400 µg/ml), 1.061 g of either α-, β- or γ-CD was directly added to obtain a 10% concentration. Each female rat received the same volume of 1 ml of test formulation by gavage.
The same volume of administration was used for the doses of 200 and 600 µg/rat.

[4] = without α-CD (standard aqueous vehicle)
[5] = vehicle + α-CD (10%), antide 200 µg/rat p.o.
[6] = vehicle + α-CD (10%), antide 400 µg/rat p.o.
[7] = vehicle + α-CD (10%), antide 600 µg/rat p.o.
[8] = vehicle + β-CD (10%), antide 400 µg/rat p.o.
[9] = vehicle + γ-CD (10%), antide 400 µg/rat p.o.
[10] = vehicle only, antide 200 µg/rat p.o.
[11] = vehicle only, antide 400 µg/rat p.o.
[12] = vehicle only, antide 600 µg/rat p.o.

| Compound | total plasma testosterone (nmol/l) (m ± sem) ([1]; with α-CD (100 mM solution)) | total plasma testosterone (nmol/l) (m ± sem) [1, 4] [nmol/L] | total plasma LH (ng/ml) (m ± sem) ([2]; with α-CD (100 mM solution)) [ng/mL] | total plasma LH (ng/ml) (m ± sem) ([2]; without α-CD) [ng/mL] | also measured |
| --- | --- | --- | --- | --- | --- |
| CCNC(=O)[C@@H]1CCCN1C(=O)[C@H](CCCNC(=N)N)NC(=O)[C@H](CC(C)(C)C)NC(=O)[C@@H](C)NC(=O)[C@H](Cc1ccc(O)cc1)NC(=O)[C@H](CO)NC(=O)[C@H](Cc1c[nH]c2ccccc12)NC(=O)[C@H](Cc1c[nH]cn1)NC(=O)[C@@H]1CCC(=O)N1 [Example 2, [D-Ala^6, Npg7, desGly^10-ProNEt^9]LH-RH] | 72.8 ± 4.64 nmol/L | 23.0 ± 8.54 | 19.7 ± 3.70 | 1.6 ± 0.14 | stimulation of testosterone secretion ([1]; with 5% (51.4 mM) α-CD): did enhance; stimulation of testosterone secretion ([1]; with 10% (103 mM) as well as 14% (144 mM) α-CD): maximal level |
| CCNC(=O)[C@@H]1CCCN1C(=O)[C@H](CCCNC(=N)N)NC(=O)[C@H](CC(C)(C)C)NC(=O)[C@@H](Cc1ccccc1)NC(=O)[C@H](Cc1ccc(O)cc1)NC(=O)[C@H](CO)NC(=O)[C@H](Cc1c[nH]c2ccccc12)NC(=O)[C@H](Cc1c[nH]cn1)NC(=O)[C@@H]1CCC(=O)N1 [Example 4, [D-Phe^6, Npg7, desGly^10-ProNEt^9]LH-RH] | 67.9 ± 9.11 nmol/L | 30.1 ± 5.86 | 16.1 ± 5.22 | 1.4 ± 0.17 | – |
| CCNC(=O)[C@@H]1CCCN1C(=O)[C@H](CCCNC(=N)N)NC(=O)[C@H](CC(C)C)NC(=O)[C@@H](C)NC(=O)[C@H](Cc1ccc(O)cc1)NC(=O)[C@H](CO)NC(=O)[C@H](Cc1c[nH]c2ccccc12)NC(=O)[C@H](Cc1c[nH]cn1)NC(=O)[C@@H]1CCC(=O)N1 [Example 6, [D-Ala^6, desGly^10-ProNet^9]LH-RH] | 61.8 ± 5.10 nmol/L | 28.3 ± 4.56 | – | – | – |
| [(S)spirolactam(Pro^6, Npg^7), desGly^10-ProNEt^9]LH-RH [Example 1] | 58.0 ± 8.75 nmol/L | 40.1 ± 6.78 | 7.1 ± 1.68 | 1.5 ± 0.19 | – |
| [Npg^7]triptorelin [Example 5] | 52.1 ± 6.99 nmol/L | 15.8 ± 4.24 | 3.2 ± 0.56 | 1.4 ± 0.10 | – |
| antide | – | – | – | – | influence of Beta- and γ-CD on the minimal activity of antide ([3]; combined with β- or γ-CD (10%), dose level of 400): no influence; animals showing inhibition of ovulation ([3]; out of 22 animals, vehicle only, threshold dose of 400): 3; n ovulations/ N treated rats [3, 5]: 6/8; percentage of inhibition [3, 5]: 25%; n ovulations/ N treated rats [3, 6]: 6/22; percentage of inhibition [3, 6]: 73%; n ovulations/ N treated rats [3, 7]: 2/8; percentage of inhibition [3, 7]: 75%; n ovulations/ N treated rats [3, 8]: 7/7; percentage of inhibition [3, 8]: 0%; n ovulations/ N treated rats [3, 9]: 7/7; percentage of inhibition [3, 9]: 0%; threshold effective dose by oral administration ([3]; vehicle only (no cyclodextrin), inhibition of ovulation): 400 µg/rat; n ovulations/ N treated rats [3, 10]: 8/8; percentage of inhibition [3, 10]: 0%; n ovulations/ N treated rats [3, 11]: 19/22; percentage of inhibition [3, 11]: 14%; n ovulations/ N treated rats [3, 12]: 5/8; percentage of inhibition [3, 12]: 44% |
| deslorelin | marked potency | 9.7 ± 2.41 | – | – | total plasma testosterone (nmol/l) (m ± sem) ([1]; with α-CD (100 mM solution), listed as Deslorelin (α-CD)): 48.2 ± 7.29 nmol/L; total plasma testosterone (nmol/l) (m ± sem) ([1]; without α-CD (standard aqueous vehicle), listed as deslorelin): inactive |
| goserelin | 66.5 ± 6.19 nmol/L | 21.4 ± 5.99 | – | – | – |
| triptorelin | 61.9 ± 6.01 nmol/L | 25.8 ± 3.14 | 10.1 ± 2.54 | 1.4 ± 0.10 | – |
